Series [1] deals with S. cerevisiae 9763. Description: Chicken soup trial at 8° C. It counts as cell-based, Saccharomyces cerevisiae. As to conditions: for Effect on growth: chicken soup at 8° C., TCSM010521, APP215. An excerpt: (§1) A local supermarket brand of cream of chicken soup was used as a model food system. 600 g packs were purchased from the local supermarket. This was a ‘fresh home-made type’ of soup that was stored in the chill cabinet, with a short shelf life. It was chosen because it is a rich, nutritious food system containing a range of food components including meat, dairy and vegetable.
(§2) Ingredients were labelled as: chicken stock (water, duck fat, chicken, salt, flavourings, yeast extracts, pork gelatine, glucose syrup, vegetable concentrate, milk protein, sugar, malto-dextrin, vegetable oil, citric acid, lactose, chicken fat), ilk, chicken (9%), cream (8%), onion, potato, vegetable oil, modified maize starch, wheat flour, lemon juice, salt, white pepper. pH 5.912. Protein: 3.3%; carbohydrate: 4.7%; fat: 7.2%; fibre: 0.2%; sodium: 0.1%
(§3) For the test the soup was mixed 2:1 in water (to facilitate sampling and mixing) and sterilised by autoclaving at 121° C. for 15 minutes. For each experiment the pH of the soup was recorded; this was between pH 5.79-5.88.
For TCS010521/8 (incubated at 8° C.), samples were prepared in 27.8 g quantities. 1.5 g of an APP stock solution was added, and the tests inoculated with 0.3 ml of a suitably diluted cell or spore suspension to give a final inoculum of ca. 10^3 cfu/g. APP was tested at 0, 500 and 1000 ppm, and batch number APP20010213 (at 169 mg/ml) was used. The tests were sampled by viable count and then incubated at 8° C. and tested on a twice-weekly basis.

Series [2] concerns Salmonella Typhimurium S29. The series is described as follows: Chicken soup trial at 20° C. It counts as cell-based. Conditions: chicken soup at 20° C., TCSM010430, APP20010213.
Source text: as §1, §2, §3
For TCS010430/20 (incubated at 20° C.) samples were prepared in 18.8 g quantities, to which 1 g of a suitable filter-sterilised APP stock solution was added and an appropriately diluted 0.2 ml inoculum. Great care was again taken to ensure homogeneous distribution of the APP and micro-organisms. This test was sampled by viable count test on a daily basis.

Series [3] deals with S. cerevisiae 9763. Description: Chicken soup trial at 20° C. It counts as cell-based, Saccharomyces cerevisiae. Conditions: 2000 ppm; chicken soup at 20° C., TCSM010430, APP20010213.
Source text: as §1, §2, §3
For TCS010430/20 (incubated at 20° C.) samples were prepared in 18.8 g quantities, to which 1 g of a suitable filter-sterilised APP stock solution was added and an appropriately diluted 0.2 ml inoculum. Great care was again taken to ensure homogeneous distribution of the APP and micro-organisms. […]

The test system of series [4] is Br. thermosphacta. The series is described as follows: Test in milk. It counts as cell-based, Brochothrix thermosphacta. As to conditions: 2000 ppm, TMGB010605. On the procedure: 8.9 ml samples of UHT milk containing 0.5% glucose and the indicator bromocresol purple (0.01%) were prepared and sterilised by autoclaving. The pH before APP addition was pH 6.65. Appropriate stock solutions of APP batch number APP20010215 (at 138 mg/ml) were prepared and filter sterilised. 1 ml of each was added to the milk to prepare tests containing 0, 1000 and 2000 ppm APP. Tests were then inoculated with 100 μl of diluted overnight broth cultures or spore suspensions to give a final inoculum level of ca. 10^3 cfu/ml. These and uninoculated tests were incubated at 20 and 8° C. and examined daily for visible changes compared to uninoculated control.

Series [5] relates to Salm Typhimurium S29. The series is described as follows: Test in cooked sausage meat slurry. As to conditions: for Total inhibition for: cooked sausage meat slurry at 8° C., pH 6.2, TSM010605. It counts as cell-based, Salmonella Typhimurium. An excerpt: 500 g of bologna sausage meat mixture was mixed with 500 g Brain Heart Infusion broth (BHIB) to make a homogeneous slurry. The bologna sausage meat mix comprised (g per kg): lean beef 320; lean pork 202; lard 250; water 40; glucose 5; starch 155; spice mix 3.75; sodium glutamate 0.5; sodium erythorbate 0.545; sodium di-phosphate 3; NaCl 20; sodium nitrite 0.15. 200 g samples of the meat slurry were autoclaved. While the meat was still warm it was re-mixed thoroughly. When the meat had cooled it was inoculated with 2 ml of 10^5 cfu/ml spore or cell suspension, and re-mixed again. Each inoculated meat sample was divided into 3×50 g samples, and 1 ml of either SDW, 2.5% or 5% APP solution (batch number APP 20010215) was added to prepare meat samples containing 0, 500 and 1000 ppm APP. The meat slurry was again shaken thoroughly to ensure even mixing, an initial viable count was taken and the samples incubated at 8° C. Samples were taken at twice-weekly intervals. The pH of the sausage meat slurry was 6.2.

In series [6] the test system is B. cereus 204. The series is described as follows: Test in cooked minced chicken slurry. It counts as cell-based, Bacillus cereus. As to conditions: 2000 ppm; minced chicken slurry at 8° C., pH 6.42, TCC010704. The method, then:
1 kg of minced chicken (mainly lean meat) was purchased from the local butcher. This was mixed with 1 litre of BHI, mixed and dispensed as 100 g samples prior to autoclaving. When still warm, the meat was re-mixed thoroughly. When cooked, the meat was inoculated with 1 ml of 10^5 spores or cells (from an overnight broth), and re-mixed. The samples were then divided into 3×25 g portions, to which 0.5 ml of filter-sterilised APP20010215 was added (as 5% or 10% stock solutions) or water. An initial viable count was taken, and the samples then incubated at 8° C. and tested twice weekly. The pH of the chicken slurry was 6.42.

Series [7] relates to Ps. fluorescens. The series is described as follows: Chicken soup at 8° C. (summary). It counts as cell-based, Pseudomonas fluorescens. As to conditions: Chicken soup at 8° C. pH 5.8.
Source text: as §1, §2, §3
For TCS010412/8 (which was incubated at 8° C.), APP batch number APP20010213 (concentration 169 mg APP/ml) was used to prepare tests containing 0, 2000 or 4000 ppm APP. […]
For TCS010521/8 (incubated at 8° C.), samples were prepared in 27.8 g quantities. […]

Series [8] can be described thus: Stability in water. It counts as physicochemical. As to conditions: water at 24° C. On the procedure:
Tests indicate that APP is stable in water at 24° C. for 2 weeks, but completely disappears after 2 months. […] At pH 11-12.5 APP has a half-life of 5 h. Since most food is acidic or neutral, the stability may therefore be improved by using APP in combination with an antioxidant such as those listed hereinbefore.

As to `O=C1CC(CO)OC=C1O` (centres unmarked) [APP, Ascopyrone P], the Effect on growth entry in series [1] (500 ppm) is “No effect with 500 and 1000 ppm”; in series [1] (1000 ppm), “No effect with 500 and 1000 ppm”; in series [2] (1000 ppm), “No effect with 1000 ppm”; in series [3], “No effect with 2000 ppm”; in series [6], “Partial inhibition by 2000 ppm”. The “No inhibition (effect on growth of target organism by APP)” value in series [1] (Chicken soup at 8° C. pH 5.8, (1000 ppm)) is listed as “S. cerevisiae (1000”. In addition, the Final count in series [2] (2000 ppm (cf 10^9 without)) is 10^6. Also, the Counts drop after in series [2] (2000 ppm) worked out at 8 days. In series [2] (2000 ppm), the “Counts undetectable by” value is “counts drop, undetectable by 18 d”. In addition, the “Control for” value in series [4] (milk at 8° C.) worked out at 1 days. In series [4] (milk at 20° C.), the Control of growth result was “No control observed”. Also, the “Total inhibition for” value in series [5] (500 ppm) was “Total inhibition by 500 for 25 d”; in series [5] (1000 ppm), “Total inhibition by 1000 ppm for >38 d”. Further, the “Total inhibition (effect on growth of target organism by APP)” value in series [5] (Cooked sausage meat slurry at 8° C. pH 6.2, (1000)) is on record as “S. Typhimurium”. Besides, the “Total inhibition (effect on growth of target organism by 2000 ppm APP)” value in series [7] is “Ps. fluorescens”. Moreover, the Completely disappears after in series [8] came out at 2 months. Besides, the “Stable in water for” value in series [8] is listed as 2 weeks.

The record behind these values is US20030203963A1, “Antimicrobial agent” (priority 2001, published 2003).
